Reference: US20160108098A1, “THERAPEUTIC PEPTIDES” (GLAXOSMITHKLINE INTELLECTUAL PROPERTY DEVELOPMENT LIMITED, priority 2013, published 2016)
Where no end group is shown, it is not given here.

Legend:
[1] = molecular target: T1, human Neuropeptide Y receptor type 2 (Homo sapiens, UniProt P49146); assay: melanophore assay, potency at the human Neuropeptide Y receptor type 2; type: cell-based; conditions: read-out: hNPY Y2 pEC50 (converted)
T1 construct: expressed in transfected cells; host or cells: melanophores; own knowledge: in the cited Jayawickreme protocol these are Xenopus laevis melanophores transfected with the receptor
T1 sequence (P49146 1-381): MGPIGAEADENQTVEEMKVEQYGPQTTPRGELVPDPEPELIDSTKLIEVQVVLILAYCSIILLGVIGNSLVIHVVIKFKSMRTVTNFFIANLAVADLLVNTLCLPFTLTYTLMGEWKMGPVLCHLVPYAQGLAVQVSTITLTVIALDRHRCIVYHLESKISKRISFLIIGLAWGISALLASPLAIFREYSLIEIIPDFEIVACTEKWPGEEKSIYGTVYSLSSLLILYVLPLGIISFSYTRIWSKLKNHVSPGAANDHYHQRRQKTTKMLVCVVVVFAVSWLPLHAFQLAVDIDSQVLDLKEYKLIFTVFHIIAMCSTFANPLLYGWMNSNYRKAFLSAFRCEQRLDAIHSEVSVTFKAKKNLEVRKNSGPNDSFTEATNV

[2] = cumulative food intake, diet-induced obese mice (Model B), BioDaQ system; type: in vivo; conditions: diet-induced obese C57BL/6 mice, 1 mg/kg subcutaneously, cumulative food intake after 6 h, relative to vehicle controls
Experimental: (§1) Cumulative food intake after 6 h was determined for the PYY analogs in either lean (Model A) or diet-induced obese (DIO) (Model B) C57BL/6 mice in a BioDaQ system for continuous monitoring of food intake (Research Diets Inc., New Brunswick, N.J.). […] Mice were placed singly into the BioDaQ cages and acclimatized for a minimum of 6 days and were allowed ad libitum access to food and water. Approximately 1 hour prior to lights-out, animals were dosed subcutaneously with either vehicle (20 mM Acetate buffer, pH 4.9 or 20% DMSO in water) or analogs dissolved in vehicle (1 mg/kg) (8 animals per group). Once all animals have been dosed, feeder gates were opened providing ad-libitum access to food. Continuous food intake was monitored and collected for 15 hours. […] P-values<0.05 were considered to indicate a significant difference between treatment groups.

[3] = cumulative food intake, lean mice (Model A), BioDaQ system; type: in vivo; conditions: lean C57BL/6 mice, 1 mg/kg subcutaneously, cumulative food intake after 6 h, relative to vehicle controls
Experimental: as §1

[4] = chronic (26 days) efficacy study in Zucker Diabetic Fatty (ZDF) rats: glucose, HbA1c; type: in vivo, Zucker Diabetic Fatty (ZDF) rat; conditions: for ΔΔ % HbA1c / ΔΔGlucose: 26 days of treatment, change from baseline and vehicle control; for ΔΔGlucose: ED20 doses
Description: Male ZDF rats were 12 weeks old at the start of the study (Charles River, Inc. Boston, Mass.). […] Baseline fat mass and non-fat mass measurements were taken 3 days before the start of peptide infusion and on day 26 of treatment using a QMR instrument (Echo Medical Systems, Houston, Tex.). […] P-values<0.05 were considered to indicate a significant difference between treatment groups.

[5] = chronic (41 days) efficacy study in diet-induced obese (DIO) Long Evans rats: body weight, body composition, food intake; type: in vivo, Long Evans rat; conditions: for weight loss vs. vehicle: 40 days, subcutaneous osmotic pumps, ED50 doses; for fat mass lost from vehicle control: QMR, day 40 of treatment; for inhibition of cumulative food intake: treatment period, vs. vehicle control
Experimental: Rats were 17 weeks old at the start of the study. The rats were housed 1 per cage and given ad libitum access to TD.95217 chow and water, maintained on a 12 h light/dark cycle from 5:00 AM to 5:00 PM at 21° C. and 50% relative humidity and allowed to acclimate for at least 7 days prior to baseline measurements. Baseline fat mass and non-fat mass measurements were taken 3 days before the start of peptide infusion and on day 40 of treatment using a QMR instrument (Echo Medical Systems, Houston, Tex.). […] Each rat was implanted with two osmotic pumps subcutaneously in the scapula region containing vehicle or peptide according to their treatment group. Body weight and food intake were measured twice per week beginning three days before the 41-day treatment period. On day 41 of treatment, whole blood was collected by cardiac stick under isoflurane anesthesia. Plasma and serum were then prepared from the whole blood for serum chemistry analysis. All the data are presented as mean±SEM. The data were analyzed in either Prism (GraphPad Software, Inc., La Jolla, Calif.) or Excel using a Student's T-test to compare each group to the appropriate control group. P-values<0.05 were considered to indicate a significant difference between treatment groups.

Row | Compound | EC50 [1] [nM] | % change in food intake vs vehicle, model A [3] [%] | also measured
1 | CC(C)C[C@H](NC(=O)[C@H](CO)NC(=O)[C@H](C)NC(=O)[C@H](Cc1ccc(O)cc1)NC(=O)[C@H](Cc1ccc(O)cc1)NC(=O)[C@H](CCCNC(=N)N)NC(=O)[C@H](CC(N)=O)NC(=O)[C@H](Cc1c[nH]c2ccccc12)NC(=O)[C@H](CCC(=O)O)NC(=O)[C@H](CCC(=O)O)NC(=O)[C@@H]1CCCN1C(=O)[C@H](CO)NC(=O)[C@H](C)NC(=O)[C@H](CC(=O)O)NC(=O)[C@H](CCCCN)NC(=O)CNC(=O)[C@@H]1CCCN1C(=O)[C@H](Cc1c[nH]cn1)NC(=O)[C@H](CCC(=O)O)NC(=O)[C@@H]1CCCN1C(=O)[C@H](CCCCN)NC(=O)[C@@H]1CCCN1)C(=O)N[C@@H](CCCNC(=N)N)C(=O)N[C@@H](CCCCN)C(=O)N[C@@H](Cc1ccc(O)cc1)C(=O)N[C@@H](CC(C)C)C(=O)N[C@@H](CC(N)=O)C(=O)N[C@@H](Cc1c[nH]c2ccccc12)C(=O)N[C@H](C(=O)N[C@H](C(=O)N[C@@H](CCCNC(=N)N)C(=O)N[C@@H](CCC(N)=O)C(=O)N[C@@H](CCCNC(=N)N)C(=O)N[C@@H](Cc1ccc(O)cc1)C(N)=O)[C@@H](C)O)C(C)C [Example 25] | 0.251 |  | % reduction in food intake, model B [2]: −68%
2 | CC[C@H](C)[C@H](N)C(=O)N[C@@H](CCCCN)C(=O)N1CCC[C@H]1C(=O)N1CCC[C@H]1C(=O)N[C@@H](Cc1ccc(O)cc1)C(=O)N1CCC[C@H]1C(=O)NCC(=O)N[C@@H](CS)C(=O)N[C@@H](CC(=O)O)C(=O)N[C@@H](C)C(=O)N[C@@H](CO)C(=O)N1CCC[C@H]1C(=O)N[C@@H](CCC(=O)O)C(=O)N[C@@H](CCC(=O)O)C(=O)N[C@@H](CCC(N)=O)C(=O)N[C@@H](CC(N)=O)C(=O)N[C@@H](CCCCN)C(=O)N[C@@H](Cc1ccc(O)cc1)C(=O)N[C@@H](Cc1ccc(O)cc1)C(=O)N[C@@H](C)C(=O)N[C@@H](CO)C(=O)N[C@@H](CC(C)C)C(=O)N[C@@H](CCCNC(=N)N)C(=O)N[C@@H](C)C(=O)N[C@@H](Cc1ccc(O)cc1)C(=O)N[C@@H](Cc1c[nH]c2ccccc12)C(=O)N[C@@H](CC(N)=O)C(=O)N[C@@H](CC(C)C)C(=O)N[C@H](C(=O)N[C@H](C(=O)N[C@@H](CCCNC(=N)N)C(=O)N[C@@H](CCC(N)=O)C(=O)N[C@@H](CCCNC(=N)N)C(=O)N[C@@H](Cc1ccc(O)cc1)C(N)=O)[C@@H](C)O)C(C)C [Peptide 8] | 0.501 | -19 | 
3 | H-IKPEAPLSKQLEEEAVRYYASLRHYLNLVTRQRY-NH2 [Peptide 2] | 2.51 | -12 | 
4 | H-PKPEAPGCDASPEEWNRYYASLRKYLNWVTRQNY-NH2 [Peptide 1] | 12.6 | 5 | 
5 | H-PKPEAPGEDASPKEWNRYYASLRKYLNWVTRQRY-NH2 [Peptide 3] | 0.631 | -30 | 
6 | H-PKPEAPLSKQLEEEAVRYYASLRHYLNLVTRQRY-NH2 [Peptide 21] | 2 | -2 | 
7 | PKPEAPGCDASPEEWNRYYASLRKYLNWVTRQHY-NH2 [Peptide 14] | 6.31 | 24 | 
8 | PKPVAPGCDASPAELNRQYSDLRNYWNLVTRQRY-NH2 [Peptide 15] | 1.26 | -17 | 
9 | PYY(3-36)NH2 |  |  | ΔΔ % HbA1c [4]: 0.01 ± 0.4%; ΔΔGlucose [4]: −33.1 ± 17^ mg/dL; weight loss vs. vehicle [5]: −1.3%; fat mass lost from vehicle control [5]: −10.9 grams; inhibition of cumulative food intake [5]: −0.7%
10 | exendin-4 |  |  | ΔΔ % HbA1c [4]: −0.4 ± 0.2%; ΔΔGlucose [4]: -53.9 mg/dL; ΔΔGlucose ([4]; listed as Exendin-4): -53.9 ± 18.3 mg/dL; ED20 for HbA1c lowering ([4]; dose used for infusion): 0.0055 mg/kg/day; weight loss vs. vehicle [5]: −11.3%; fat mass lost from vehicle control [5]: −55.8 grams; ED50 for weight loss ([5]; dose used for infusion): 0.15 mg/kg/day; inhibition of cumulative food intake [5]: −20.1%
